Measurements from patent US7288528B2, “Aromatic fluoroglycoside derivatives, medicaments containing these compounds, and the use thereof” (Sanofi-Aventis Deutschland GmbH, priority 2002, dated 2007).

Molecular target: T1, SGLT (Oryctolagus cuniculus, UniProt P11170)
T1 construct: To prepare brush border membranes from rabbit small intestine, rabbits were sacrificed; from tissue; host or cells: rabbit small intestine mucosa, brush border membrane vesicles (Mg2+ precipitation method)
T1 sequence (P11170 1-662): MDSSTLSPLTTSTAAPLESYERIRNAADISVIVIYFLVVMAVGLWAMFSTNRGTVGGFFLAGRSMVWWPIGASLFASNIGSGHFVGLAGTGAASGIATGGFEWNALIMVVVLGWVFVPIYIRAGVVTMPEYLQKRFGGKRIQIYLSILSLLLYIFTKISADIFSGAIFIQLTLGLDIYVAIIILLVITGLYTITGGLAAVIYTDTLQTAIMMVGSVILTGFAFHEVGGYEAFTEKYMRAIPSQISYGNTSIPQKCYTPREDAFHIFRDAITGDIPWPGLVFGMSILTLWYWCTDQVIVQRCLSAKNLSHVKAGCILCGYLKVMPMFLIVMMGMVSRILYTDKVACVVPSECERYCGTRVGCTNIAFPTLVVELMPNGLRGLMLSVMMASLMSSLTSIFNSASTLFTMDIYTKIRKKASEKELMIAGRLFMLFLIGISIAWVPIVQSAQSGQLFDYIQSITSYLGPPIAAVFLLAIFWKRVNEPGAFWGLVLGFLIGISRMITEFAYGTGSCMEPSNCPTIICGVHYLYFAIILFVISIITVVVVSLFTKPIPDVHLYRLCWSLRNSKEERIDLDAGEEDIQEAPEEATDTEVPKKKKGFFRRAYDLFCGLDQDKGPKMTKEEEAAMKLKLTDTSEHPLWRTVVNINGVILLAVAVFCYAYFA
Assay: Glucose uptake by brush border membrane vesicles (transport assay, membrane filtration method)
Assay type: biochemical
Details: uptake of 10 μM [14C]D-glucose into rabbit small intestine brush border membrane vesicles, 30° C., 15 seconds

IC50 [µM] | SMILES
0.7 | OCC1OC(Oc2ccccc2Cc2ccccc2)C(O)C(O)C1F (centres unmarked) [Example 2]
0.9 | COc1ccc(CCC(=O)c2c(O)cc(C)cc2OC2OC(CO)C(F)C(O)C2O)cc1 (centres unmarked) [Example 7]
0.5 | COc1ccc(Cc2ccccc2OC2OC(CO)C(F)C(O)C2O)cc1 (centres unmarked) [Example 1]

Second part, the compound before the results:

SMILES | IC50 [µM]
Cc1cc(O)c(C(=O)CCc2ccc3occc3c2)c(OC2OC(CO)C(F)C(O)C2O)c1 (single isomer, unassigned) [Example 5] | 0.4
Cc1cc(O)c(C(=O)CCc2ccc3occc3c2)c(OC2OC(CO)C(F)C(O)C2O)c1 (single isomer, unassigned) [Example 4] | 1.5
